Measurements from patent US20180360810A1, “NUPHARIDINE COMPOUNDS AND DERIVATIVES THEREOF FOR THE TREATMENT OF CYSTEINE PROTEASE RELATED DISEASES” (B. G. NEGEV TECHNOLOGIES AND APPLICATIONS LTD., AT …, priority 2015, published 2018).

How the values were obtained:
Type in all cases: biochemical
papain = target: T1, papain (Carica papaya, UniProt P00784); test: Protease Fluorescent Detection Kit, inhibition of papain activity; conditions: FITC-labeled casein substrate; 10 μg papain in 50 μL; various concentrations of inhibitor
T1 sequence (P00784 134-345): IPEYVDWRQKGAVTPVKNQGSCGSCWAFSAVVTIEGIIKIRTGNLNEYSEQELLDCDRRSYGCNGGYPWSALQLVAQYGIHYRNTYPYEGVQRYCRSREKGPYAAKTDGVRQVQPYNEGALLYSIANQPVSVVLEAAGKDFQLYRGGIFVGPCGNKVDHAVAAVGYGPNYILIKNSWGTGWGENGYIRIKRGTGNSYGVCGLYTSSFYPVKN
Description: The Protease Fluorescent Detection Kit of Sigma Aldrich was used for measurement of protease activity using fluorometry. In exemplary embodiments, the method is based on the proteolytic hydrolysis of a proprietary formulation of a FITC-labeled casein substrate. The reaction mixture contained in a final volume of 50 μL, 10 μg papain and various concentrations of the candidate inhibitor.

Human Cathepsin L = target: T2, Human Cathepsin L (Homo sapiens, UniProt P07711); test: Cathepsin L fluorometric inhibition assay; conditions: substrate Ac-FR-AFC; CTSL Assay Buffer; molarity calculated on assumed molecular weight of 526 daltons; read-out: IC50 (Nanomolar)
T2 construct: purchased
T2 sequence (P07711 114-333): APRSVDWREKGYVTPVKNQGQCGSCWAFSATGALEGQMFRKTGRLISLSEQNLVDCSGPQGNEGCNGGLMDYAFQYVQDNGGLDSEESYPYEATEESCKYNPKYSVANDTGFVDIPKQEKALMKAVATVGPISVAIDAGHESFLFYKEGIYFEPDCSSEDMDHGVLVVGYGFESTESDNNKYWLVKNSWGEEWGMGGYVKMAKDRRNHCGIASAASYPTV
Description: (§1) Inhibition assays were performed in triplicates using 96 well plates transparent for Calpain, Trypsin, Papain, Cathepsin L and Cathepsin B (167008; Nunc, Roskilde, Denmark), or black for Cathepsin S, Cathepsin D and Insulyzin (ide) (Greiner 96 Polystyrol GRE96fb) according to manufacturers' instructions. Briefly, reaction mixture of 100 μl contained: 45 μl of enzyme in assay buffer, 5 μl of inhibitors diluted in DMSO. 50 μl substrate prepared in assay buffer according to manufacturers' instructions. The inhibitor was serially diluted in DMSO to concentrations from 0.0075 μg/μL to 0.0000075 μg/μL. 5 μl DMSO was added to control sample. Cathepsin substrate mix was added last just before starting the fluorometric measurement. Data was collected for 1.5 h at 60 sec intervals. Molarity of inhibitors were calculated based on assumed molecular weight of 526 daltons as a reference value for comparative evaluations.

Human rCathepsin D = target: T3, Human rCathepsin D (Homo sapiens, UniProt P07339); test: Cathepsin D fluorometric inhibition assay; conditions: substrate ES001; pH 3.5; molarity calculated on assumed molecular weight of 526 daltons; read-out: IC50 (Nanomolar)
T3 construct: purchased
T3 sequence (P07339 65-412): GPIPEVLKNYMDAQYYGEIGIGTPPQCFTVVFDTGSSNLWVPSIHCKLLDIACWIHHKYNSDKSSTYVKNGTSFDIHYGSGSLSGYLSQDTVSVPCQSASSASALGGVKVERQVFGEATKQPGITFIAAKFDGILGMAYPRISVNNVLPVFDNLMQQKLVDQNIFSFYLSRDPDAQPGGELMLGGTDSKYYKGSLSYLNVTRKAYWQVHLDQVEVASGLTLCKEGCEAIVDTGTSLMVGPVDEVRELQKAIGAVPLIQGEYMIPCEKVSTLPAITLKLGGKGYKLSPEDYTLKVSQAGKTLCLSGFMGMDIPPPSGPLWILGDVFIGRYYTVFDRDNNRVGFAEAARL
Description: as §1

Human Insulyzin (ide) = target: T4, Human Insulyzin (ide) (Homo sapiens, UniProt P14735); test: Insulyzin (ide) fluorometric inhibition assay; conditions: substrate ES005; pH 7.5; molarity calculated on assumed molecular weight of 526 daltons; read-out: IC50 (Nanomolar)
T4 construct: purchased
T4 sequence (P14735 1-1019): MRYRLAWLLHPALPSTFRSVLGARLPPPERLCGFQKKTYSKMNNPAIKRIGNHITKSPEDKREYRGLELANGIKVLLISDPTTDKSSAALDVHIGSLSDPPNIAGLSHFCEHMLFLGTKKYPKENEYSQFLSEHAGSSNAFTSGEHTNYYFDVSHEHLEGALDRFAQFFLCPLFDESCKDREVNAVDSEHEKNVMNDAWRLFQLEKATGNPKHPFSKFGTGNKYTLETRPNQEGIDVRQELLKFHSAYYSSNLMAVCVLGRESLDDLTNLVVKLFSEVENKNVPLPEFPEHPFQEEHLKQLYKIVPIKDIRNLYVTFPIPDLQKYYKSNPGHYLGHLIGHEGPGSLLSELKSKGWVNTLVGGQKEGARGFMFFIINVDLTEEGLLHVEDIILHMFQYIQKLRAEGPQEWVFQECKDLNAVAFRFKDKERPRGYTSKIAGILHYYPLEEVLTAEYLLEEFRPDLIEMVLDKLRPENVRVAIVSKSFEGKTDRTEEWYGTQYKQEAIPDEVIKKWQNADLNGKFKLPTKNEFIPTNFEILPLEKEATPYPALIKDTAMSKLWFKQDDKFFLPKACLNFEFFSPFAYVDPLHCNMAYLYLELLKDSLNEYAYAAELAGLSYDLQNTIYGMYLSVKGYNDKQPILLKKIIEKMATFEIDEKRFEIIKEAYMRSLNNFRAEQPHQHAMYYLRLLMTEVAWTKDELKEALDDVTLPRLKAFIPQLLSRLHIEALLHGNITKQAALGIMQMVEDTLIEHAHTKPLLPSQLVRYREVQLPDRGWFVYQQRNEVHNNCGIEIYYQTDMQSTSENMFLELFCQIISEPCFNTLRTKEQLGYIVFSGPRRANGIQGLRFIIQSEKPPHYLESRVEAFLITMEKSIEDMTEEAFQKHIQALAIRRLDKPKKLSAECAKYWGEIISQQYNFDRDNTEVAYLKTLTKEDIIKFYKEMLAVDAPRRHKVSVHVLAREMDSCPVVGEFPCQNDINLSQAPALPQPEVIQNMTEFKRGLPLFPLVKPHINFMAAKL
Description: as §1

Human Cathepsin B = target: T5, Human Cathepsin B (Homo sapiens, UniProt P07858); test: Cathepsin B inhibition assay, Casein FITC; conditions: substrate Casein FITC; pH 6.5; molarity calculated on assumed molecular weight of 526 daltons; read-out: IC50 (Nanomolar)
T5 construct: purchased
Description: as §1

Human Cathepsin S = target: T6, Human Cathepsin S (Homo sapiens, UniProt P25774); test: Cathepsin S fluorometric inhibition assay; conditions: substrate ES002; pH 4.5; molarity calculated on assumed molecular weight of 526 daltons; read-out: IC50 (Nanomolar)
T6 construct: purchased
T6 sequence (P25774 115-331): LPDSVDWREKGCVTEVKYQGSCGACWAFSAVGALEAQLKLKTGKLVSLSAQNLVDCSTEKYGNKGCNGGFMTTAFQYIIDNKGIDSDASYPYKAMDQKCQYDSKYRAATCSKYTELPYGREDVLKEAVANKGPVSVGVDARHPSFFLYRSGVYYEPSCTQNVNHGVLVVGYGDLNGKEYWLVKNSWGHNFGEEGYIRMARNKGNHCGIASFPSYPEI
Description: as §1

Trypsin = Trypsin inhibition assay, Casein FITC; conditions: substrate Casein FITC; 0.3M potassium chloride, 0.1 mM EDTA, 3 mM DTT pH 6.5
Description: as §1
The specificity of the reaction was tested by treatment of trypsin, a serine protease with the above mentioned compounds and no inhibitory activity was found (as shown in FIG. 2).

Calpain = Calpain inhibition assay, Casein FITC; conditions: substrate Casein FITC; 0.3M potassium chloride, 0.1 mM EDTA, 3 mM DTT pH 6.5, 2 mM CaCl2
Description: as §1

Row | Compound | inhibition of papain activity (FIG. 1) (papain) | IC50 (Human Cathepsin L) [nM] | IC50 (Human rCathepsin D) [nM] | IC50 (Human Insulyzin (ide)) [nM] | IC50 (Human Cathepsin B) [nM] | IC50 (Human Cathepsin S) [nM] | IC50 (Microgram/ml / Nanomolar) (Trypsin) | IC50 (Microgram/ml / Nanomolar) (Calpain)
1 | C1=[N+](CCCCc2ccccc2)CCCC12CC1(C=[N+](CCCCCc3ccccc3)CC1)CS2 (stereo not drawn) [6-61] | demonstrated an inhibition of papain activity |  |  |  |  |  |  | 
2 | 6 hydroxybinupharidine [Nup-4 sigma] |  | 0.056 | 0.32 | 0.85 | 29.4 |  |  | 
3 | 6 6′dihydroxybinupharidine [Nup-3 sigma] |  | 0.266 | 0.07 | 0.33 | 21.8 | 0.08 | no inhibition | no inhibition
